The text below walks through data of patent US20130040978A1 (priority 2010, published 2013).

In general, IC50 refers to the concentration that gives 50% inhibition.

Structures can show the parent of a compound that is named as a salt.

Assay [1] concerns the target T1, SSTR5 (Homo sapiens, UniProt P35346). Description: SSTR5 receptor-ligand binding assay, CHO-K1 cell membranes, 125I-SRIF radioligand. The note with it: Table 4, read-out: Bnd IC50. Also on record: expressed in transfected cells. As to the method: The receptor-ligand binding assays of all 5 subtype of SSTRs were performed with membranes isolated from Chinese hamster ovary (CHO)-K1 cells stably expressing the cloned human somatostatin receptors in 96-well format as previous reported. (Yang et al. PNAS 95:10836-10841, (1998), Birzin et al. Anal. Biochem. 307:159-166, (2002)).
The stable cell lines for SSTR1-SSTR5 were developed by stably transfecting with DNA for all five SSTRs using Lipofectamine. Neomycin-resistant clones were selected and maintained in medium containing 400 μg/mL G418 (Rohrer et al. Science 282:737-740, (1998)). Binding assays were performed using (3-125I-Tyr11)-SRIF-14 or (3-125I-Tyrl 1)-SRIF-28 as the radioligand (used at 0.1 nM) and The Packard Unifilter assay plate. The assay buffer consisted of 50 mM TrisHCl (pH 7.8) with 1 mM EGTA, 5 mM MgCl2, leupeptin (10 μg/mL), pepstatin (10 μg/mL), bacitracin (200 μg/mL), and aprotinin (0.5 μg/mL). CHO-K1 cell membranes, radiolabeled somatostatin, and unlabeled test compounds were resuspended or diluted in this assay buffer. Unlabeled test compounds were examined over a range of concentrations from 0.01 nM to 10,000 nM. The Ki values for compounds were determined as described by Cheng and Prusoff Biochem Pharmacol. 22:3099-3108 (1973).

In assay [2] the target is T1, SSTR5. The assay can be described thus: Functional assay of inhibition of SSTR5 mediated cyclic AMP production in SSTR5 expressing CHO cells. The conditions noted are these: forskolin (FSK) plus SS-28, read-out: cAMP IC50. The assay is classed as cell-based, human.

T1 sequence (P35346 whole entry): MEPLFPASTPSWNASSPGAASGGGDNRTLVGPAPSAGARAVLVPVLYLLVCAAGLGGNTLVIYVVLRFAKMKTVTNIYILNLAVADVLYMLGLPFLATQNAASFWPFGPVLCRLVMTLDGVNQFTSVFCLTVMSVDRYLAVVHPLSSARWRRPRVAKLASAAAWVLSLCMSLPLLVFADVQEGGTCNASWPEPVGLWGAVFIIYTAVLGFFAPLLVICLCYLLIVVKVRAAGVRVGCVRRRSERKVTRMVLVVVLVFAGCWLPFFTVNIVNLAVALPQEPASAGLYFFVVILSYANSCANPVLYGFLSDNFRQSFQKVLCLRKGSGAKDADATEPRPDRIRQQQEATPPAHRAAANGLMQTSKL

For “4-{8-[(4,4-Dimethyl-3,4-dihydro-2-H-chromen-6-yl)methyl]-1-oxa-2,8-diazaspiro[4.5]dec-2-en-3-yl}benzoic acid, TFA salt [Example 2]”, the figures for the IC50 in assay [1] and in assay [2] were 4.3 nM and 5.2 nM, respectively.
For `CCOc1cc(CN2CCC3(CC2)CC(c2ccc(C(=O)O)cc2)=NO3)cc(OCC)c1-c1ccc(F)cc1` [Example 1, 4-{8-[(2,6-Diethoxy-4′-fluorobiphenyl-4-yl)methyl]-1-oxa-2,8-diazaspiro[4.5]dec-2-en-3-yl}benzoic acid, TFA salt] the same measures were 1.2 nM and 0.72 nM.
For `CC(C)(C)n1cc(CN2CCC3(CC2)CC(c2ccc(C(=O)O)cc2)=NO3)c(-c2ccc(F)c(F)c2F)n1` [Example 3, 4-(8-{[1-tert-Butyl-3-(2,3,4-trifluorophenyl)-1H-pyrazol-4-yl]methyl})-1-oxa-2,8-diazaspiro[4.5]dec-2-en-3-yl)benzoic acid, TFA salt], the IC50 in assay [1] is 2.8 nM; in assay [2] it was 8.2 nM.
In the case of `CCOc1ccc(-c2ccc(F)cc2F)c(CN2CCC3(CC2)CC(c2ccc(C(=O)O)cc2)=NO3)c1` [Example 4, 4-{8-[(4-Ethoxy-2′,4′-difluorobiphenyl-2-yl)methyl]-1-oxa-2,8-diazaspiro[4.5]dec-2-en-3-yl}benzoic acid], the values for the concentration for half-maximal inhibition (IC50) in assay [1] and in assay [2] were 2.9 nM and 3 nM, respectively.
Take `CCOc1cc(CN2CCC3(CC2)CC(c2ccc(C(=O)O)cc2)=NO3)cc(OCC)c1OCC(F)(F)F` [Example 5, 4-{8-[3,5-Diethoxy-4-(2,2,2-trifluoroethoxy)benzyl]-1-oxa-2,8-diazaspiro[4.5]dec-2-en-3-yl}benzoic acid]: the IC50 in assay [1] is 6 nM; in assay [2] it was 2.4 nM.
On to `CCOc1ccc(-c2cc(F)c(F)cc2F)c(CN2CCC3(CC2)CC(c2ccc(C(=O)O)cc2)=NO3)c1` [Example 10, 4-{8-[(4-Ethoxy-2′,4′,5′-trifluorobiphenyl-2-yl)methyl]-1-oxa-2,8-diazaspiro[4.5]dec-2-en-3-yl}benzoic acid], for which the values for the IC50 in assay [1] and in assay [2] were 1.8 nM and 5.7 nM, respectively.
For the molecule `CCOc1cc(CN2CCC3(CC2)CC(c2ccc(C(=O)O)cc2)=NO3)ccc1Cl` [Example 12, 4-[8-(4-Chloro-3-ethoxybenzyl)-1-oxa-2,8-diazaspiro[4.5]dec-2-en-3-yl]benzoic acid], the IC50 stood at 7.5 nM in assay [1] and 1.3 nM in assay [2].
Turning to `CC(C)Oc1ccc(-c2ccc(F)c(F)c2)c(CN2CCC3(CC2)CC(c2ccc(C(=O)O)cc2)=NO3)c1` [Example 13, 4-(8-{[3′,4′-Difluoro-4-(propan-2-yloxy)biphenyl-2-yl]methyl}-1-oxa-2,8-diazaspiro[4.5]dec-2-en-3-yl)benzoic acid], the IC50 in assay [1] and in assay [2] was 2.9 nM each time.
As for `CCOc1cc(CN2CCC3(CC2)CC(c2ccc(C(=O)O)cc2)=NO3)ccc1-c1nccs1` [Example 18, 4-{8-[3-Ethoxy-4-(1,3-thiazol-2-yl)benzyl]-1-oxa-2,8-diazaspiro[4.5]dec-2-en-3-yl}benzoic acid], the concentration for half-maximal inhibition (IC50) in assay [1] was determined as 12 nM; in assay [2], 11 nM.
For `CCOc1cc(CN2CCC3(CC2)CC(c2ccc(C(=O)O)cc2)=NO3)c(-c2nccs2)cc1C` [Example 19, 4-{8-[5-Ethoxy-4-methyl-2-(1,3-thiazol-2-yl)benzyl]-1-oxa-2,8-diazaspiro[4.5]dec-2-en-3-yl}benzoic acid] the same measures were 1.5 nM and 0.94 nM.
Take `CC(C)(C)n1cc(CN2CCC3(CC2)CC(c2ccc(C(=O)O)cc2)=NO3)c(-c2ccc(F)c(Cl)c2)n1` [Example 24]: the IC50 in assay [1] is 2.3 nM; in assay [2], 1.8 nM.
For `CCOc1cc(CN2CCC3(CC2)CC(c2ccc(C(=O)O)cn2)=NO3)cc(OCC)c1-c1ccc(F)cc1` [Example 25, 6-{8-[(2,6-Diethoxy-4′-fluorobiphenyl-4-yl)methyl]-1-oxa-2,8-diazaspiro[4.5]dec-2-en-3-yl}pyridine-3-carboxylic acid] the same measures were 1.2 nM and 2.6 nM.
For `CCOc1cc(CN2CCC3(CC2)CC(c2ccc(C(=O)O)cc2)=NO3)c(-c2ccc(F)nc2)cc1C` [Example 26, 4-{8-[5-Ethoxy-2-(6-fluoropyridin-3-yl)-4-methylbenzyl]-1-oxa-2,8-diazaspiro[4.5]dec-2-en-3-yl}benzoic acid] the same measures were 0.33 nM and 0.32 nM.
In the case of `CC(C)(C)n1cc(CN2CCC3(CC2)CC(c2ccc(C(=O)O)cn2)=NO3)c(-c2ccc(F)c(Cl)c2)n1` [Example 27, 6-(8-{(1-tert-Butyl-3-(3-chloro-4-fluorophenyl)-1H-pyrazol-4-yl]methyl}-1-oxa-2,8-diazaspiro[4.5]dec-2-en-3-yl)pyridine-3-carboxylic acid], the IC50 came out at 10 nM in assay [1] and 8.8 nM in assay [2].
For `CCOc1cc(CN2CCC3(CC2)CC(c2ccc(C(=O)O)cn2)=NO3)c(-c2ccc(F)c(F)c2F)cc1C` [Example 29, 6-{8-[(4-Ethoxy-2′,3′,4′-trifluoro-5-methylbiphenyl-2-yl)methyl]-1-oxa-2,8-diazaspiro[4.5]dec-2-en-3-yl}pyridine-3-carboxylic acid] the same measures were 0.99 nM and 5.6 nM.
Consider `CCOc1ccc(-c2ccc(F)c(F)c2F)c(CN2CCC3(CC2)CC(c2ccc(C(=O)O)cn2)=NO3)c1` [Example 30, 6-{8-[(4-Ethoxy-2′,3′,4′-trifluorobiphenyl-2-yl)methyl]-1-oxa-2,8-diazaspiro[4.5]dec-2-en-3-yl}pyridine-3-carboxylic acid], for which the IC50 in assay [1] is 0.41 nM; in assay [2], 0.76 nM.
